Measurements taken from patent US9072746B2, “Method for enhancing learning and memory impaired by neurodegenerative disorders and compounds and compositions for effecting the same” (The Board of Trustees of the Leland Stanford Junior …, priority 2010, dated 2015).
“Also recorded” adds a separate entry of the source.

Assays:
Type in all cases: in vivo
[1] = tested on: male 2N mice; assay: T-maze spontaneous alternation; conditions: xamoterol 3 mg/kg s.c. 1 h, betaxolol 1 mg/kg s.c. 30 min before testing
Text: (§1) The T-maze had 3 equal arms (30 cm length, 10 cm width, and 20 cm height). The start arm and 2 goal arms had guillotine gates. This test was based on the rodents' preference to experience a new arm of the T-maze instead of a familiar one ([…], 1998). In each trial, the mouse was placed in the start arm. The gate was then opened and the mouse was able to freely explore the arms. As soon as the mouse entered one goal arm, the sliding gate of the other goal arm closed. The mouse eventually returned to the start arm and the next trial was started. In the next trial, the mouse may recognize the previously chosen goal arm and choose to explore a new arm rather than revisit the previously visited arm. This trial was repeated 11 times per day for 3 consecutive days, for a total of 33 trials. The maze was cleaned with 50% ethanol between trials to eliminate odor. Percent of alternation (number of turns in each goal arm) was used for analysis. This protocol has been described before by Belichenko et al. (2009) and is modified from a Deacon and Rawlins (2006) protocol (Deacon and Rawlins, 2006; Belichenko et al., 2009). […] In this part of the study, activity chamber and three cognitive tests, including T-maze spontaneous alternation, contextual fear conditioning (CFC), and novel object recognition were performed. In T-maze spontaneous alternation and contextual fear conditioning, both Ts65Dn and 2N male mice were divided into three treatment groups including normal saline (Vehicle), xamoterol, and betaxolol plus xamoterol groups. In the novel object recognition test, both Ts65Dn and 2N male mice were divided into two treatment groups, normal saline and xamoterol. The T-maze was performed exactly as previously described. […] On the first day (training day), animals were placed in the fear conditioning chamber, and after a 3-minute pre-shock period, they were exposed to 5 shocks (2 s, 0.5 mA,) with inter-trial intervals of 80 seconds and no tone. On the second day, the animals first received xamoterol, xamoterol plus betaxolol, or saline injection, and one hour later, they were placed in the same chamber for 5 minutes. Similar to the previous description of fear conditioning, freezing was defined as the complete lack of motion for a minimum of o.75 second. The Novel Object Recognition task is conducted in an open field arena (40 cm×40 cm). Mice were habituated in the testing room for 1 hour followed by 5 minutes habituation inside the arena without any objects. On 4th day animals were introduced 3 times to arena with 3 identical subjects for 10 minutes with 3 minutes inter trial intervals. On 5th day (24 hours after trainings) one of the objects replaced by a novel one and the time sniffing of each object were used for analysis. For testing the role of β1 adrenergic system, xamoterol and betaxolol (Tocris Bioscience, Ellisville, Mo.) were injected subcutaneously using 10 ml/kg normal saline as vehicle. Xamoterol, (3 mg/kg) was given one hour before testing and betaxolol (1 mg/kg) was given 30 minutes before testing.

[2] = tested on: male Ts65Dn mice; assay: T-maze spontaneous alternation; conditions: for effect on T-maze spontaneous alternation deficit: xamoterol 3 mg/kg s.c.
Text: as §1

[3] = tested on: male 2N mice; assay: Contextual fear conditioning; conditions: xamoterol 3 mg/kg s.c. 1 h, betaxolol 1 mg/kg s.c. 30 min before testing
Description: (§2) Contextual and Cued fear conditioning was conducted for evaluation of fear-dependent learning and retrieval in the study. The test was performed using chambers from Coulbourn Instruments (Whitehall, Pa.). On the first day, the animals were placed in a chamber (Context A) for 3 min for baseline recording, followed by 5 tone-shock pairings. The shock (0.5 mA, 2 sec) was delivered following the tone (70 dB, 2 kHz, 20 sec) in each conditional/unconditional stimulus pairing. On the second day a novel chamber (Context B; new room, new olfactory environment, texture of floor, blue plastic inserts for walls, extra source of blue light, and visual cues) was used for cued testing. Three tones without shocks were presented to animals during a 3 min testing period following a 3 min pre-tone period. On the last day of the experiment, the mice were placed in Context A for 5 min without any conditional and unconditional stimulus {modified from the method described by (Saxe et al., 2006)}. Freezing was defined as the complete lack of motion for a minimum of 0.75 second as measured by FreezeFrame software (Actimetrics, Evanston, Ill.). The percent of freezing in each period was reported. For the startle response control test, an acoustic startle reflex apparatus (Med Associates Inc., St. Albans, Vt.) was used. The subjects were acclimated to the animal holder in the startle box for a total of 15 min over 3 consecutive-days prior to the experiment. The animals were exposed to 25 different trials with 10-20 second randomly variable inter-trial intervals. Five different intensities of startle pulses, 0, 90, 100, 110, and 120 dB, were randomly used, and each animal was randomly exposed 5 times to each intensity of the startle pulse. The duration of each startle pulse was 40 ms and the peak amplitude of the startle response in each trial was recorded for analysis. The holding cage on the apparatus was cleaned with 10% alcohol between each animal. […] In this part of the study, activity chamber and three cognitive tests, including T-maze spontaneous alternation, contextual fear conditioning (CFC), and novel object recognition were performed. In T-maze spontaneous alternation and contextual fear conditioning, both Ts65Dn and 2N male mice were divided into three treatment groups including normal saline (Vehicle), xamoterol, and betaxolol plus xamoterol groups. In the novel object recognition test, both Ts65Dn and 2N male mice were divided into two treatment groups, normal saline and xamoterol. The T-maze was performed exactly as previously described. […] On the first day (training day), animals were placed in the fear conditioning chamber, and after a 3-minute pre-shock period, they were exposed to 5 shocks (2 s, 0.5 mA,) with inter-trial intervals of 80 seconds and no tone. On the second day, the animals first received xamoterol, xamoterol plus betaxolol, or saline injection, and one hour later, they were placed in the same chamber for 5 minutes. Similar to the previous description of fear conditioning, freezing was defined as the complete lack of motion for a minimum of o.75 second. The Novel Object Recognition task is conducted in an open field arena (40 cm×40 cm). Mice were habituated in the testing room for 1 hour followed by 5 minutes habituation inside the arena without any objects. On 4th day animals were introduced 3 times to arena with 3 identical subjects for 10 minutes with 3 minutes inter trial intervals. On 5th day (24 hours after trainings) one of the objects replaced by a novel one and the time sniffing of each object were used for analysis. For testing the role of β1 adrenergic system, xamoterol and betaxolol (Tocris Bioscience, Ellisville, Mo.) were injected subcutaneously using 10 ml/kg normal saline as vehicle. Xamoterol, (3 mg/kg) was given one hour before testing and betaxolol (1 mg/kg) was given 30 minutes before testing.

[4] = tested on: male Ts65Dn mice; assay: Contextual fear conditioning; conditions: for effect on memory retrieval deficit in contextual fear conditioning: xamoterol 3 mg/kg s.c. one hour before testing
Description: as §2

[5] = xamoterol 3 mg/kg s.c. 1 h, betaxolol 1 mg/kg s.c. 30 min before testing

Structure (SMILES): O=C(NCCNCC(O)COc1ccc(O)cc1)N1CCOCC1 (stereo not shown) [xamoterol]
- % of Spontaneous Alternation in T-maze, Mean ± SEM [1]: 64.4 ± 2.1%
- effect on T-maze spontaneous alternation deficit [2]: completely rescue; also recorded: rescued
- % of Spontaneous Alternation in T-maze, Mean ± SEM [2, 5]: 60.4 ± 4.5%
- effect on T-maze spontaneous alternation deficit ([2]; listed as Xamoterol): rescued
- effect on T-maze spontaneous alternation deficit ([2]; listed as Xamoterole): Xamoterole can rescue the deficit in
- % Freshing in Tone-cued Fear Conditioning, Mean ± SEM [3]: 38.43 ± 8.26%
- % Freshing in Tone-cued Fear Conditioning, Mean ± SEM [4, 5]: 45.36 ± 12.40%
- effect on memory retrieval deficit in contextual fear conditioning [4]: completely rescue
- effect on memory retrieval deficit in contextual fear conditioning ([4]; listed as Xamoterol): rescued; also recorded: improved
- effect on memory retrieval deficit in contextual fear conditioning ([4]; listed as Xamoterole): Xamoterole rescues the deficit in
